Measured values as given in US20240300932A1, “N-PHENYLIMINE DERIVATIVE AND PREPARATION METHOD AND USE THEREOF” (Guizhou University, priority 2023, published 2024).

Key:
[1] = tested on: Setaria viridis; assay: Post-emergence herbicidal activity test (stem and leaf spray, pot culture); assay type: in vivo; conditions: 3 weeks after spraying
How it was run: (§1)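 Pot-grown weeds in loam (pH 7, 1.63% organic matter) were spray-treated on stems and leaves at the 2- to 3-leaf stage with compound in acetone/Tween 80 plus 1.5 liters/ha methyl oleate at 10, 5 or 2.5 g/mu. Fresh-weight growth control was scored 3 weeks later as grades 0–5.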

[2] = tested on: Amaranthus retroflexus; assay: as above; assay type: in vivo; conditions: 3 weeks after spraying
How it was run: as §1

[3] = tested on: Abutilon theophrasti; assay: as above; assay type: in vivo; conditions: 3 weeks after spraying
How it was run: as §1

[4] = tested on: Portulaca oleracea; assay: as above; assay type: in vivo; conditions: 3 weeks after spraying
How it was run: as §1

[5] = tested on: Echinochloa crusgalli; assay: as above; assay type: in vivo; conditions: 3 weeks after spraying
How it was run: as §1

[6] = tested on: Trifoliumre pensL.; assay: as above; assay type: in vivo; conditions: 3 weeks after spraying
How it was run: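 Pot-grown weeds in loam (pH 7), greenhouse at 20–30 °C, sprayed once post-emergence at the 2–3-leaf stage. Compound in acetone with Tween 80 plus methyl oleate oil (1.5 L/ha), applied at 10, 5 and 2.5 g/mu by spray tower. Effect scored 3 weeks after spraying, averaged over three repeats.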

Row | melting point [°C] | Compound | Post-emergence herbicidal activity, S. viridis (grade) ([1]; dosage 2.5 g/mu) | Post-emergence herbicidal activity, S. viridis (grade) ([1]; dosage 5 g/mu) | Post-emergence herbicidal activity, S. viridis (grade) ([1]; dosage 10 g/mu) | Post-emergence herbicidal activity, A. retroflexus (grade) ([2]; dosage 2.5 g/mu) | Post-emergence herbicidal activity, A. retroflexus (grade) ([2]; dosage 5 g/mu) | Post-emergence herbicidal activity, A. retroflexus (grade) ([2]; dosage 10 g/mu) | Post-emergence herbicidal activity, A. theophrasti (grade) ([3]; dosage 2.5 g/mu) | Post-emergence herbicidal activity, A. theophrasti (grade) ([3]; dosage 5 g/mu) | Post-emergence herbicidal activity, A. theophrasti (grade) ([3]; dosage 10 g/mu) | Post-emergence herbicidal activity, P. oleracea (grade) ([4]; dosage 2.5 g/mu) | Post-emergence herbicidal activity, P. oleracea (grade) ([4]; dosage 5 g/mu) | Post-emergence herbicidal activity, P. oleracea (grade) ([4]; dosage 10 g/mu) | Post-emergence herbicidal activity, E. crusgalli (grade) ([5]; dosage 2.5 g/mu) | Post-emergence herbicidal activity, E. crusgalli (grade) ([5]; dosage 5 g/mu) | Post-emergence herbicidal activity, E. crusgalli (grade) ([5]; dosage 10 g/mu) | Post-emergence herbicidal activity, Trifoliumre pensL. (grade) ([6]; dosage 2.5 g/mu) | Post-emergence herbicidal activity, Trifoliumre pensL. (grade) ([6]; dosage 5 g/mu) | Post-emergence herbicidal activity, Trifoliumre pensL. (grade) ([6]; dosage 10 g/mu)
1 | 158 to 160 | O=C(COc1cc(N2C(=O)C3=C(CCCC3)C2=O)c(F)cc1Cl)c1ccc(F)cc1F [Compound C12, 2-(4-chloro-2-fluoro-5-(2-oxo-2-(2,4-difluorophenyl)ethoxy)phenyl)-4,5,6,7-tetrahydro-1H-isoindole-1,3(2H)-dione] | 2 (Grade 2: the growth control rate is greater than or equal to 20% and less than 40%) | 3 (Grade 3: the growth control rate is greater than or equal to 40% and less than 60%) | 4 (Grade 4: the growth control rate is greater than or equal to 60% and less than 85%) | 5 (Grade 5: the growth control rate is greater than or equal to 85%) | 5 (Grade 5: the growth control rate is greater than or equal to 85%) | 5 (Grade 5: the growth control rate is greater than or equal to 85%) | 5 (Grade 5: the growth control rate is greater than or equal to 85%) | 5 (Grade 5: the growth control rate is greater than or equal to 85%) | 5 (Grade 5: the growth control rate is greater than or equal to 85%) | 5 (Grade 5: the growth control rate is greater than or equal to 85%) | 5 (Grade 5: the growth control rate is greater than or equal to 85%) | 5 (Grade 5: the growth control rate is greater than or equal to 85%) | 1 (Grade 1: the growth control rate is greater than or equal to 5% and less than 20%) | 2 (Grade 2: the growth control rate is greater than or equal to 20% and less than 40%) | 3 (Grade 3: the growth control rate is greater than or equal to 40% and less than 60%) | 5 (Grade 5: the growth control rate is greater than or equal to 85%) | 5 (Grade 5: the growth control rate is greater than or equal to 85%) | 5 (Grade 5: the growth control rate is greater than or equal to 85%)
2 | 151 to 153 | COc1ccc(C(=O)COc2cc(N3C(=O)C4=C(CCCC4)C3=O)c(F)cc2Cl)cc1 [Compound C13, 2-(4-chloro-2-fluoro-5-(2-oxo-2-(4-methoxyphenyl)ethoxy)phenyl)-4,5,6,7-tetrahydro-1H-isoindole-1,3(2H)-dione] | 2 (Grade 2: the growth control rate is greater than or equal to 20% and less than 40%) | 3 (Grade 3: the growth control rate is greater than or equal to 40% and less than 60%) | 4 (Grade 4: the growth control rate is greater than or equal to 60% and less than 85%) | 5 (Grade 5: the growth control rate is greater than or equal to 85%) | 5 (Grade 5: the growth control rate is greater than or equal to 85%) | 5 (Grade 5: the growth control rate is greater than or equal to 85%) | 5 (Grade 5: the growth control rate is greater than or equal to 85%) | 5 (Grade 5: the growth control rate is greater than or equal to 85%) | 5 (Grade 5: the growth control rate is greater than or equal to 85%) | 5 (Grade 5: the growth control rate is greater than or equal to 85%) | 5 (Grade 5: the growth control rate is greater than or equal to 85%) | 5 (Grade 5: the growth control rate is greater than or equal to 85%) | 1 (Grade 1: the growth control rate is greater than or equal to 5% and less than 20%) | 2 (Grade 2: the growth control rate is greater than or equal to 20% and less than 40%) | 3 (Grade 3: the growth control rate is greater than or equal to 40% and less than 60%) | 5 (Grade 5: the growth control rate is greater than or equal to 85%) | 5 (Grade 5: the growth control rate is greater than or equal to 85%) | 5 (Grade 5: the growth control rate is greater than or equal to 85%)
3 | 183 to 185 | O=C(COc1cc(N2C(=O)C3=C(CCCC3)C2=O)c(F)cc1Cl)c1ccc(Br)cc1 [Compound C14, 2-(4-chloro-2-fluoro-5-(2-oxo-2-(4-bromophenyl)ethoxy)phenyl)-4,5,6,7-tetrahydro-1H-isoindole-1,3(2H)-dione] | 2 (Grade 2: the growth control rate is greater than or equal to 20% and less than 40%) | 3 (Grade 3: the growth control rate is greater than or equal to 40% and less than 60%) | 4 (Grade 4: the growth control rate is greater than or equal to 60% and less than 85%) | 5 (Grade 5: the growth control rate is greater than or equal to 85%) | 5 (Grade 5: the growth control rate is greater than or equal to 85%) | 5 (Grade 5: the growth control rate is greater than or equal to 85%) | 5 (Grade 5: the growth control rate is greater than or equal to 85%) | 5 (Grade 5: the growth control rate is greater than or equal to 85%) | 5 (Grade 5: the growth control rate is greater than or equal to 85%) | 5 (Grade 5: the growth control rate is greater than or equal to 85%) | 5 (Grade 5: the growth control rate is greater than or equal to 85%) | 5 (Grade 5: the growth control rate is greater than or equal to 85%) | 1 (Grade 1: the growth control rate is greater than or equal to 5% and less than 20%) | 2 (Grade 2: the growth control rate is greater than or equal to 20% and less than 40%) | 3 (Grade 3: the growth control rate is greater than or equal to 40% and less than 60%) | 5 (Grade 5: the growth control rate is greater than or equal to 85%) | 5 (Grade 5: the growth control rate is greater than or equal to 85%) | 5 (Grade 5: the growth control rate is greater than or equal to 85%)
4 | 144 to 146 | Cc1ccc(C(=O)COc2ccc(N3C(=O)C4=C(CCCC4)C3=O)c(F)c2)cc1 [Compound C15, 2-(2-fluoro-4-(2-oxo-2-(4-tolyl)ethoxy)phenyl)-4,5,6,7-tetrahydro-1H-isoindole-1,3(2H)-dione] | 2 (Grade 2: the growth control rate is greater than or equal to 20% and less than 40%) | 3 (Grade 3: the growth control rate is greater than or equal to 40% and less than 60%) | 4 (Grade 4: the growth control rate is greater than or equal to 60% and less than 85%) | 5 (Grade 5: the growth control rate is greater than or equal to 85%) | 5 (Grade 5: the growth control rate is greater than or equal to 85%) | 5 (Grade 5: the growth control rate is greater than or equal to 85%) | 5 (Grade 5: the growth control rate is greater than or equal to 85%) | 5 (Grade 5: the growth control rate is greater than or equal to 85%) | 5 (Grade 5: the growth control rate is greater than or equal to 85%) | 5 (Grade 5: the growth control rate is greater than or equal to 85%) | 5 (Grade 5: the growth control rate is greater than or equal to 85%) | 5 (Grade 5: the growth control rate is greater than or equal to 85%) | 1 (Grade 1: the growth control rate is greater than or equal to 5% and less than 20%) | 2 (Grade 2: the growth control rate is greater than or equal to 20% and less than 40%) | 3 (Grade 3: the growth control rate is greater than or equal to 40% and less than 60%) | 5 (Grade 5: the growth control rate is greater than or equal to 85%) | 5 (Grade 5: the growth control rate is greater than or equal to 85%) | 5 (Grade 5: the growth control rate is greater than or equal to 85%)
